Measurements as given in patent US6949556B2, “Acylated 1,2,3,4-tetrahydronaphthyl amines and their use as pharmaceutical agents” (Aventis Pharma Deutschland GmbH, priority 2001, dated 2005).

target: eNOS promoter; assay: Activation of eNOS transcription (eNOS promoter firefly luciferase reporter); format: cell-based; conditions: EC50 of transcription induction ratio (TIR) vs compound concentration, determined graphically; stably transfected human endothelial cell line, 18 h incubation
Procedure: Activation of eNOS transcription was measured as described in detail in Li et al. “Activation of protein kinase C alpha and/or epsilon enhances transcription of the human endothelial nitric oxide synthase gene”, Mol. Pharmacol. 1998; 53: 630-637. Briefly, a 3.5 kB long fragment 5′ of the starting codon of the eNOS gene was cloned, sequenced and cloned in firefly luciferase expression plasmids to monitor activation of the eNOS promoter by reporter gene activity. A human endothelial cell line stable transfected and expressing this promoter-reporter construct was used for compound testing. Cells were incubated for 18 h with compounds.
All compounds were dissolved in sterile DMSO. A final concentration of 0.5% DMSO in complete medium was allowed. Induction of reporter gene expression in these cells was measured using a standard luciferase assay system (Promega, Cat. No E150) according to the manufacturer's instructions. Luciferase induction in cells incubated with compounds were compared to those incubated with solvent alone. The ratio of both activities (transcription induction ratio, TIR) was plotted as a function of compound concentration. Typically, TIR values started at low concentrations at a ratio of 1, indicating no compound effect, and extended up to a maximum TIR value TIR(max) which indicates the increase of the eNOS transcription. EC50 values of transcription induction ratios as a function of compound concentration were determined graphically.

First: O=C(N[C@@H]1CCc2ccccc2C1)c1ccc(Cl)nc1 [Compound 14, 6-Chloro-N-(R)-1,2,3,4-tetrahydro-naphthalen-2-yl-nicotinamide]
Second: Cc1ccc(C(=O)N[C@@H]2CCc3ccccc3C2)cn1 [Compound 19, 6-Methyl-N-(R)-1,2,3,4-tetrahydro-naphthalen-2-yl-nicotinamide]
The EC50 of the first is 1.8-fold lower: 5.93 µM for the first, 10.9 µM for the second. The first is the more potent here.

Compared with `O=C(N[C@H]1CCc2ccccc2C1)c1cncc(-c2cccs2)c1` [Compound 63, N-(S)-1,2,3,4-Tetrahydro-naphthalen-2-yl-5-thiophen-2-yl-nicotinamide], `O=C(N[C@@H]1CCc2ccccc2C1)c1ccc2cc[nH]c2c1` [Compound 48, 1H-Indole-6-carboxylic acid N-(R)-(1,2,3,4-tetrahydro-naphthalen-2-yl)-amide] is 52-fold higher in EC50: 0.3 µM for the first, 15.6 µM for the second.

`Cc1nc(C(F)(F)F)c(C(=O)N[C@@H]2CCc3ccccc3C2)s1` [Compound 45, 2-Methyl-4-trifluoromethyl-thiazole-5-carboxylic acid N-(R)-(1,2,3,4-tetrahydro-naphthalen-2-yl)-amide] and `Cc1nc(C(F)(F)F)c(C(=O)N[C@H]2CCc3ccccc3C2)s1` [Compound 46, 2-Methyl-4-trifluoromethyl-thiazole-5-carboxylic acid-N-(S)-(1,2,3,4-tetrahydro-naphthalen-2-yl)-amide] are within 1.5-fold of each other in EC50: 0.29 µM for the first, 0.41 µM for the second.

First: CCCc1c(C(=O)N[C@H]2CCc3ccccc3C2)cnn1-c1cc(Cl)cc(Cl)c1 [Compound 67, 1-(3,5-Dichloro-phenyl)-5-propyl-1H-pyrazole-4-carboxylic acid N-(S)-(1,2,3,4-tetrahydro-naphthalen-2-yl)-amide]
Second: CCCc1c(C(=O)N[C@@H]2CCc3ccccc3C2)cnn1-c1cc(Cl)cc(Cl)c1 [Compound 66, 1-(3,5-Dichloro-phenyl)-5-propyl-1H-pyrazole-4-carboxylic acid N-(R)-(1,2,3,4-tetrahydro-naphthalen-2-yl)-amide]
The EC50 of the first is 4-fold higher: 23.5 µM for the first, 5.86 µM for the second.

`CN(C)c1cccc(C(=O)N[C@H]2CCc3ccccc3C2)c1` [Compound 11, 3-Dimethylamino-N-(S)-1,2,3,4-tetrahydro-naphthalen-2-yl-benzamide] and `CN(C)c1cccc(C(=O)N[C@@H]2CCc3ccccc3C2)c1` [Compound 10, 3-Dimethylamino-N-(R)-1,2,3,4-tetrahydro-naphthalen-2-yl-benzamide] are within 1.5-fold of each other in EC50: 12.8 µM for the first, 9.56 µM for the second.

Going from `N#Cc1ccc(C(=O)N[C@H]2CCc3ccccc3C2)cn1` [Compound 57, 6-Cyano-N-(S)-1,2,3,4-tetrahydro-naphthalen-2-yl-nicotinamide] to `N#Cc1ccc(C(=O)N[C@@H]2CCc3ccccc3C2)cn1` [Compound 56, 6-Cyano-N-(R)-1,2,3,4-tetrahydro-naphthalen-2-yl-nicotinamide], the EC50 rises from 0.5 µM to 2.75 µM (5.5-fold). The first is the more potent here.

Compared with `Cc1c(C(=O)N[C@@H]2CCc3ccccc3C2)cnn1-c1ccccc1` [Compound 31, 5-Methyl-1-phenyl-1H-pyrazole-4-carboxylic acid N-(R)-(1,2,3,4-tetrahydro-naphthalen-2-yl)-amide], `Cc1c(C(=O)N[C@H]2CCc3ccccc3C2)cnn1-c1ccccc1` [Compound 32, 5-Methyl-1-phenyl-1H-pyrazole-4-carboxylic acid N-(S)-(1,2,3,4-tetrahydro-naphthalen-2-yl)-amide] is 9.6-fold lower in EC50: 10.9 µM for the first, 1.13 µM for the second. The second is the more potent here.

Compared with `Cc1ccc(C(=O)N[C@H]2CCc3ccccc3C2)c(Cl)n1` [Compound 40, 2-Chloro-6-methyl-N-(S)-1,2,3,4-tetrahydro-naphthalen-2-yl-nicotinamide], `Cc1ccc(C(=O)N[C@@H]2CCc3ccccc3C2)c(Cl)n1` [Compound 39, 2-Chloro-6-methyl-N-(R)-1,2,3,4-tetrahydro-naphthalen-2-yl-nicotinamide] is 2.1-fold higher in EC50: 13.6 µM for the first, 28.3 µM for the second.

Going from `Cc1ncccc1C(=O)N[C@@H]1CCc2ccccc2C1` [Compound 27, 2-Methyl-N-(R)-1,2,3,4-tetrahydro-naphthalen-2-yl-nicotinamide] to `Nc1ncccc1C(=O)N[C@@H]1CCc2ccccc2C1` [Compound 17, 2-Amino-N-(R)-1,2,3,4-tetrahydro-naphthalen-2-yl-nicotinamide], the EC50 rises from 0.18 µM to 1.96 µM (11-fold).

`Cc1nc(-c2ccccc2)sc1C(=O)N[C@@H]1CCc2ccccc2C1` [Compound 41, 4-Methyl-2-phenyl-thiazole-5-carboxylic acid N-(R)-(1,2,3,4-tetrahydro-naphthalen-2-yl)-amide] and `Cc1nc(-c2ccccc2)sc1C(=O)N[C@H]1CCc2ccccc2C1` [Compound 42] are within 1.5-fold of each other in EC50: 20.4 µM for the first, 16 µM for the second.

Going from `Cc1nc(C)c(C(=O)N[C@@H]2CCc3ccccc3C2)s1` [Compound 29, 2,4-Dimethyl-thiazole-5-carboxylic acid N-(R)-(1,2,3,4-tetrahydro-naphthalen-2-yl)-amide] to `Cc1nc(C)c(C(=O)N[C@H]2CCc3ccccc3C2)s1` [Compound 30, 2,4-Dimethyl-thiazole-5-carboxylic acid N-(S)-(1,2,3,4-tetrahydro-naphthalen-2-yl)-amide], the EC50 rises from 10.5 µM to 81.8 µM (7.8-fold). The first is the more potent here.

`Cc1cc(C)c(C(=O)N[C@@H]2CCc3ccccc3C2)c(N)n1` [Compound 43, 2-Amino-4,6-dimethyl-N-(R)-1,2,3,4-tetrahydro-naphthalen-2-yl-nicotinamide] and `Cc1ccc(C(=O)N[C@H]2CCc3ccccc3C2)cn1` [Compound 20, 6-Methyl-N-(S)-1,2,3,4-tetrahydro-naphthalen-2-yl-nicotinamide] are within 1.5-fold of each other in EC50: 20.6 µM for the first, 24.7 µM for the second.

First: O=C(N[C@@H]1CCc2ccccc2C1)c1ccc(C(F)(F)F)nc1 [Compound 50, N-(R)-1,2,3,4-Tetrahydro-naphthalen-2-yl-6-trifluoromethyl-nicotinamide]
Second: O=C(N[C@H]1CCc2ccccc2C1)c1ccc(C(F)(F)F)nc1 [Compound 51, N-(S)-1,2,3,4-Tetrahydro-naphthalen-2-yl-6-trifluoromethyl-nicotinamide]
The EC50 of the first is 15-fold higher: 24.6 µM for the first, 1.6 µM for the second. The second is the more potent here.

Going from `Cc1nc(C(F)(F)F)ccc1C(=O)N[C@@H]1CCc2ccccc2C1` [Compound 54, 2-Methyl-N-(R)-1,2,3,4-tetrahydro-naphthalen-2-yl-6-trifluoromethyl-nicotinamide] to `Cc1nc(C(F)(F)F)ccc1C(=O)N[C@H]1CCc2ccccc2C1` [Compound 55, 2-Methyl-N-(S)-1,2,3,4-tetrahydro-naphthalen-2-yl-6-trifluoromethyl-nicotinamide], the EC50 falls from 16.3 µM to 1.1 µM (15-fold). The second is the more potent here.

Going from `O=C(N[C@@H]1CCc2ccccc2C1)c1ccc2[nH]cnc2c1` [Compound 23, 1H-Benzoimidazole-5-carboxylic acid N-(R)-(1,2,3,4-tetrahydro-naphthalen-2-yl)-amide] to `O=C(NC1CCc2ccccc2C1)c1ccc(F)cc1` (centres unmarked) [Compound 1, 4-Fluoro-N-(1,2,3,4-tetrahydro-naphth-2-yl)-benzamide], the EC50 falls from 11.5 µM to 2.2 µM (5.2-fold). The second is the more potent here.

Going from `COc1cccc2c1CC[C@H](NC(=O)c1ccc(F)cc1)C2` [Compound 7, (S)-N-(5-Methoxy-1,2,3,4-tetrahydro-naphth-2-yl)-4-fluoro-benzamide] to `COc1cccc2c1CC[C@@H](NC(=O)c1ccc(F)cc1)C2` [Compound 6, (R)-N-(5-Methoxy-1,2,3,4-tetrahydro-naphth-2-yl)-4-fluoro-benzamide], the EC50 falls from 6 µM to 1.5 µM (4-fold). The second is the more potent here.

First: O=C(N[C@@H]1CCc2cccc(Br)c2C1)c1ccc(F)cc1 [Compound 4, (R)-N-(8-Bromo-1,2,3,4-tetrahydro-naphth-2-yl)-4-fluoro-benzamide]
Second: O=C(N[C@H]1CCc2cccc(Br)c2C1)c1ccc(F)cc1 [Compound 5, (S)-N-(8-Bromo-1,2,3,4-tetrahydro-naphth-2-yl)-4-fluoro-benzamide]
The EC50 of the first is higher: over 30 µM for the first, 10 µM for the second. The second is the more potent here.

First: O=C(N[C@H]1CCc2ccccc2C1)c1cccc2[nH]ccc12 [Compound 22, 1H-Indole-4-carboxylic acid-N-(S)-(1,2,3,4-tetrahydro-naphthalen-2-yl)-amide]
Second: O=C(N[C@@H]1CCc2ccccc2C1)c1onc2ccccc12 [Compound 64, Benzo[c]isoxazole-3-carboxylic acid N-(R)-(1,2,3,4-tetrahydro-naphthalen-2-yl)-amide]
The EC50 of the first is 1.7-fold lower: 8.82 µM for the first, 15.2 µM for the second. The first is the more potent here.

`O=C(N[C@@H]1CCc2ccccc2C1)c1cnn(-c2ccc(Cl)cc2)c1C(F)(F)F` [Compound 33, 1-(4-Chloro-phenyl)-5-trifluoromethyl-1H-pyrazole-4-carboxylic acid N-(R)-(1,2,3,4-tetrahydro-naphthalen-2-yl)-amide] and `O=C(N[C@H]1CCc2ccccc2C1)c1cnn(-c2ccc(Cl)cc2)c1C(F)(F)F` [Compound 34, 1-(4-Chloro-phenyl)-5-trifluoromethyl-1H-pyrazole-4-carboxylic acid N-(S)-(1,2,3,4-tetrahydro-naphthalen-2-yl)-amide] are within 1.5-fold of each other in EC50: 7 µM for the first, 9.97 µM for the second.

First: Cc1cnc(C(=O)N[C@H]2CCc3ccccc3C2)cn1 [Compound 36, 5-Methyl-pyrazine-2-carboxylic acid N-(S)-(1,2,3,4-tetrahydro-naphthalen-2-yl)-amide]
Second: Cc1cnc(C(=O)N[C@@H]2CCc3ccccc3C2)cn1 [Compound 35, 5-Methyl-pyrazine-2-carboxylic acid N-(R)-(1,2,3,4-tetrahydro-naphthalen-2-yl)-amide]
The EC50 of the first is 45-fold lower: 0.33 µM for the first, 14.9 µM for the second.

With `COc1ccc(-n2ncc(C(=O)N[C@@H]3CCc4ccccc4C3)c2C)cc1` [Compound 60, 1-(4-Methoxy-phenyl)-5-methyl-1H-pyrazole-4-carboxylic acid N-(R)-(1,2,3,4-tetrahydro-naphthalen-2-yl)-amide] the EC50 was 4.12 µM.
